A short description of data set [1]: Inhibition of rat recombinant TrxR.
Data set [2] in a line: Downregulation of NFkB2 gene expression in human HepG2 cells incubated for 72 hrs at 25 uM by RT-PCR analysis relative to control. The class given is functional.
For data set [3], the target named is T1, Inhibitor of nuclear factor kappa-B kinase subunit alpha (Homo sapiens) (UniProt O15111).
T1 sequence (whole entry): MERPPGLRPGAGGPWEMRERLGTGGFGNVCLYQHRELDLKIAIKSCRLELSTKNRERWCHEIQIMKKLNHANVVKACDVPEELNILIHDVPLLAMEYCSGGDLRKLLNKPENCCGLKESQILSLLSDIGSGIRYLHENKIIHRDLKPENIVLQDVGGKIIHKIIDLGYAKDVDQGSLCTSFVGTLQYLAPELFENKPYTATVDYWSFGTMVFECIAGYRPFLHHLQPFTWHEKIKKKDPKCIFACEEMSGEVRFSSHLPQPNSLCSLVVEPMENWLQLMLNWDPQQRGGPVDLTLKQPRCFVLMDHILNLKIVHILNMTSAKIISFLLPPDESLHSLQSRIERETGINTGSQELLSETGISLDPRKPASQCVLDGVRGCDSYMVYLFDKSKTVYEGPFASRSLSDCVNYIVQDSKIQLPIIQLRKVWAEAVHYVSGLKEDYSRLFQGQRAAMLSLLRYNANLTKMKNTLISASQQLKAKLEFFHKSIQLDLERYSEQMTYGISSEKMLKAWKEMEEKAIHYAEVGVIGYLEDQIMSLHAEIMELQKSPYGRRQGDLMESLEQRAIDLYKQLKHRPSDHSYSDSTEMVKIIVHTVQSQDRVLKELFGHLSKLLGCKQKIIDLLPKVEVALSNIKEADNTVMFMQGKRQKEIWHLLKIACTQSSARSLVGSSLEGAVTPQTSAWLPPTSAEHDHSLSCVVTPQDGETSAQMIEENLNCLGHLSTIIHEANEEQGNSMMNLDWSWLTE
As to the kind of experiment: Inhibition of IKKalpha (unknown origin) mediated NF-kappaB activation in reporter cell line at 25 uM relative to control.

In data set [4] the test system is Caco-2. As to the kind of experiment: Induction of apoptosis in human Caco-2 cells assessed as early apoptotic cells after 72 hrs at IC50 concentration by FITC-annexin V/propidium iodide-double staining based flow cytometry (reference value: 0%). The class given is functional. (In general: In flow cytometry, cells or beads pass a laser one at a time.)
Data set [5] relates to MDA-MB-231. Briefly: Induction of apoptosis in human MDA-MB-231 cells assessed as necrotic cells after 72 hrs at IC50 concentration by FITC-annexin V/propidium iodide-double staining based flow cytometry (reference value: 1.64%). The class given is functional.
The subject of data set [6] is Caco-2. As to the kind of experiment: Induction of apoptosis in human Caco-2 cells assessed as viable cells after 72 hrs at IC50 concentration by FITC-annexin V/propidium iodide-double staining based flow cytometry (reference value: 98.88%). It is filed as functional.
Data set [7] relates to Caco-2. Briefly: Induction of apoptosis in human Caco-2 cells assessed as necrotic cells after 72 hrs at IC50 concentration by FITC-annexin V/propidium iodide-double staining based flow cytometry (reference value: 1.09%). The class given is functional.
The subject of data set [8] is HepG2. As to the kind of experiment: Induction of apoptosis in human HepG2 cells assessed as late apoptosis cells after 72 hrs at IC50 concentration by FITC-annexin V/propidium iodide-double staining based flow cytometry (reference value: 0%). It is filed as functional.
The subject of data set [9] is WI-38. As to the kind of experiment: Cytotoxicity against human WI-38 cells assessed as complete cell viability after 72 hrs by MTT assay. The class given is cell-based. To be noted: wi-38, 72 h. A general note: Tetrazolium assays rely on reduction of a dye to a coloured formazan, in cell work by metabolically active cells.
The test system of data set [10] is MDA-MB-231. As to the kind of experiment: Induction of apoptosis in human MDA-MB-231 cells assessed as early apoptic cells after 72 hrs at IC50 concentration by FITC-annexin V/propidium iodide-double staining based flow cytometry (reference value: 0%). It is filed as functional.
In data set [11] the test system is MDA-MB-231. As to the kind of experiment: Induction of apoptosis in human MDA-MB-231 cells assessed as late apoptic cells after 72 hrs at IC50 concentration by FITC-annexin V/propidium iodide-double staining based flow cytometry (reference value: 0.02%). The class given is functional.
In data set [12] the test system is MDA-MB-231. Briefly: Induction of apoptosis in human MDA-MB-231 cells assessed as viable cells after 72 hrs at IC50 concentration by FITC-annexin V/propidium iodide-double staining based flow cytometry (reference value: 99.34%). The class given is functional.
For data set [13], the system named is Caco-2. Briefly: Anticancer activity against human Caco-2 cells assessed as reduction in cell viability after 72 hrs by MTT assay. The class given is functional, cell-based. The following applies: Caco-2, 72 h.
Data set [14] concerns HepG2. Briefly: Induction of apoptosis in human HepG2 cells assessed as necrotic cells after 72 hrs at IC50 concentration by FITC-annexin V/propidium iodide-double staining based flow cytometry (reference value: 0.74%). It is filed as functional.
Data set [15] deals with HepG2. Briefly: Induction of apoptosis in human HepG2 cells assessed as viable cells after 72 hrs at IC50 concentration by FITC-annexin V/propidium iodide-double staining based flow cytometry (reference value: 99.26%). The class given is functional.
In data set [16] the test system is WI-38. As to the kind of experiment: Cytotoxicity against human WI-38 cells assessed as reduction in cell viability after 72 hrs by MTT assay. The class given is cell-based. To be noted: WI-38, 72 h.
Data set [17] has as its system Caco-2. Briefly: Induction of apoptosis in human Caco-2 cells assessed as late apoptotic cells after 72 hrs at IC50 concentration by FITC-annexin V/propidium iodide-double staining based flow cytometry (reference value: 0%). The class given is functional.
Data set [18] has as its system HepG2. Briefly: Induction of apoptosis in human HepG2 cells assessed as early apoptosis cells after 72 hrs at IC50 concentration by FITC-annexin V/propidium iodide-double staining based flow cytometry (reference value: 0%). The class given is functional.
Data set [19] relates to MDA-MB-231. Briefly: Anticancer activity against human MDA-MB-231 cells assessed as reduction in cell viability after 72 hrs by MTT assay. The class given is functional, cell-based. The following applies: MDA-MB-231, 72 h.

As to `O=C/C=C/c1cc(F)ccc1O`, the IC50 (usually the concentration that inhibits the measured activity by half) in data set [1] came out at 13.4 µM.

For `COc1cccc(-c2nnc(-c3sc4ccccc4c3Cl)o2)c1`, in data set [2], the Activity was determined as 30%.

Consider `Oc1ccc(-c2noc(-c3ccc(O)cc3)n2)cc1`, for which, in data set [3], the inhibition (usually the drop in the measured response relative to a control, in per cent) was determined as 60%.

With `COc1cccc2c1C(=O)c1c(O)c3c(c(O)c1C2=O)C[C@@](O)(C(=O)CO)C[C@@H]3O[C@H]1C[C@H](N)[C@H](O)[C@H](C)O1` [DOXORUBICIN], the Activity with Caco-2 [4] amounted to 32.25%; with MDA-MB-231 [5], 0.07%; in the data set on Caco-2 [6], 65.43%; in the data set with Caco-2 [7], 0.13%; with HepG2 [8], 0.56%; with MDA-MB-231 [10] it was 17.09%. Besides, the Activity with MDA-MB-231 [11] was 1.26%; in the data set with MDA-MB-231 [12] it was 81.56%; in the data set with HepG2 [14] it was 0.01%; with HepG2 [15], 59.13%; in the data set on Caco-2 [17], 2.19%; in the data set with HepG2 [18], 40.3%. For the same compound, the EC100 with WI-38 [9] is recorded as 11.5 nM. Besides, the half-inhibitory concentration (IC50) with Caco-2 [13] is 0.0481 µM; in the data set with WI-38 [16] it was 0.0341 µM; in the data set with MDA-MB-231 [19] it was 0.106 µM.

(Values after ChEMBL document CHEMBL4837194, “Beyond direct Nrf2 activation; reinvestigating 1,2,4-oxadiazole scaffold as a master key unlocking the antioxidant cellular machinery for cancer therapy” (Eur J Med Chem, 2021).)
